Measured values reported in patent US4450269A, “Mono-5-substituted-3-chloro-4H-1,2,6-thiadiazin-4-one antifungal agents” (FMC Corporation, priority 1980, dated 1984).
Read-outs that look alike come from different tables or passages of the source.

Experiments:
[1] = tested on: Phytophthora infestans; format: cell-based; settings: PI, 48 hours
[2] = tested on: Cladosporium cucumerinum; assay: Spore germination test; format: cell-based; settings: CC, 48 hours
Procedure: CC = Cladosporium cucumerinum
(§1) The test chemical was dissolved or suspended in acetone in an amount such that 0.8 ml of the resulting suspension or solution, mixed with 40 ml water agar produced a water agar solution containing 40, 10, 2.5 and 1 ppm of test chemical. The resulting agar solution, at 50° C., was then divided equally between two sterile petri dishes, each having four separated quadrants, and allowed to solidify. […] quadrants of each dish were flooded with 0.1 ml of a spore suspension in sterile water. Spores of two pathogens, Erysiphe polygoni and Uromyes phaseoli, from infected plant leaves, were brushed on the remaining two quadrants. The tests were then incubated 48 hours, at 24° C.
(§2) Readings were then taken and the percentage of germinated spores calculated. From this percentage, a spore germination rating was assigned as follows: […]

[3] = tested on: Pyricularia oryzae; format: cell-based; settings: PO, 48 hours
[4] = tested on: Venturia inaequalis; assay: Spore germination test; format: cell-based; settings: VI, 48 hours
Procedure: VI = Venturia inaequalis
as §1, §2

[5] = tested on: Uromyces phaseoli; assay: Spore germination test; format: cell-based; settings: UP, 48 hours
Procedure: as §1, §2

[6] = tested on: Botrytis cinerea; assay: Spore germination test; format: cell-based; settings: BC, 48 hours
Procedure: as §1, §2

[7] = tested on: Alternaria solani; assay: Spore germination test; format: cell-based; settings: AS, 48 hours
Procedure: as §1, §2

[8] = tested on: Erysiphe polygoni; assay: Spore germination test; format: cell-based; settings: EP, 48 hours
Procedure: as §1, §2

[9] = tested on: Fusarium solani; assay: Mycelial growth test; format: cell-based; settings: Fusarium solani, 72 h; for inhibition at 5 ppm / inhibition at 10 ppm / inhibition at 20 ppm: PS, 72 hours, read-out: Percent Fungus Growth Inhibition; for inhibition at 40 ppm: read-out: Percent Fungus Growth Inhibition, PS, 40 ppm, 72 hours
[10] = tested on: Rhizoctonia solani; assay: Mycelial growth test; format: cell-based; settings: Rhizoctonia solani, 72 h, RS, read-out: Percent Fungus Growth Inhibition
Description: | RS = Rhizoctonia solani

[11] = tested on: Helminthosporium oryzae; assay: Mycelial growth test; settings: Bipolaris oryzae, 72 h
[12] = tested on: Pythium ultimum; assay: Mycelial growth test; format: cell-based; settings: Globisporangium ultimum, 72 h, PU, read-out: Percent Fungus Growth Inhibition
[13] = tested on: Pyricularia oryzae; assay: microbe, parasite or virus in culture; format: cell-based; settings: Pyricularia oryzae, 72 h; for inhibition at 5 ppm: read-out: Percent Fungus Growth Inhibition, PO, 5 ppm, 72 hours; for inhibition at 10 ppm: read-out: Percent Fungus Growth Inhibition, PO, 10 ppm, 72 hours; for inhibition at 20 ppm: read-out: Percent Fungus Growth Inhibition, PO, 20 ppm, 72 hours; for inhibition at 40 ppm: read-out: Percent Fungus Growth Inhibition, PO, 40 ppm, 72 hours
[14] = tested on: Alternaria solani; assay: Mycelial growth test; format: cell-based; settings: Alternaria solani, 72 h, AS, read-out: Percent Fungus Growth Inhibition
[15] = tested on: Sclerotinia fructicola; assay: Mycelial growth test; format: cell-based; settings: Sclerotinia, 72 h, SF, read-out: Percent Fungus Growth Inhibition
Description: | SF = Sclerotinia fructicola

[16] = tested on: Cladosporium cucumerinum; assay: Mycelial growth test; format: cell-based; settings: Cladosporium cucumerinum, CC, read-out: Percent Fungus Growth Inhibition; for inhibition at 5 ppm / inhibition at 10 ppm / inhibition at 40 ppm: 72 h; for inhibition at 20 ppm: CC20, 72 h
Description: |CC = Cladosporium cucumerinum

[17] = tested on: Uromyces phaseoli; assay: whole plant or invertebrate; settings: foliar, read-out: Percent Disease Control, foliar, bean rust
[18] = tested on: Erysiphe polygoni; assay: whole plant or invertebrate; settings: foliar, 24 h, read-out: Percent Disease Control, curative, bean powdery mildew
[19] = tested on: Phytophthora infestans; assay: whole plant or invertebrate; format: in vivo; settings: Phytophthora infestans, in Solanum lycopersicum, foliar, read-out: Percent Disease Control, foliar, tomato late blight, 150 ppm, protective
[20] = tested on: Pyricularia oryzae; assay: whole plant or invertebrate; format: in vivo; settings: Pyricularia oryzae, foliar, 24 h, read-out: Percent Disease Control, curative, rice blast, 150 ppm, 24 hours after inoculation
[21] = tested on: Uromyces phaseoli; assay: whole plant or invertebrate; settings: foliar, 24 h, read-out: Percent Disease Control, curative, bean rust
[22] = read-out: Percent Fungus Growth Inhibition

In the case of `CCCCNC(=O)n1c(NC(=O)OC)nc2ccccc21` [Benomyl, reference compound], the “Spore Germination Rating” value ([1]; 1.0 ppm) is reported as 2 (40-60), the “Spore Germination Rating” value ([1]; 2.5 ppm) is reported as 2 (40-60) and the “Spore Germination Rating” value ([1]; 10 ppm) is reported as 0 (0-10). For the same compound, the “Spore Germination Rating” value ([1]; 40 ppm) was 1 (10-40), the “Spore Germination Rating” value ([2]; 1.0 ppm) was 4 (80-100) and the “Spore Germination Rating” value ([2]; 2.5 ppm) was 4 (80-100). For the same compound, the “Spore Germination Rating” value ([2]; 10 ppm) was 3 (60-80), the “Spore Germination Rating” value ([2]; 40 ppm) was 0 (0-10) and the “Spore Germination Rating” value ([3]; 1.0 ppm) was 4 (80-100). For the same compound, the “Spore Germination Rating” value ([3]; 2.5 ppm) was 4 (80-100), the “Spore Germination Rating” value ([3]; 10 ppm) was 3 (60-80) and the “Spore Germination Rating” value ([3]; 40 ppm) was 0 (0-10). The “Spore Germination Rating” value ([4]; 1.0 ppm) was 3 (60-80), the “Spore Germination Rating” value ([4]; 2.5 ppm) was 3 (60-80) and the “Spore Germination Rating” value ([4]; 10 ppm) was 0 (0-10). The “Spore Germination Rating” value ([4]; 40 ppm) was 0 (0-10), the “Spore Germination Rating” value ([5]; 1.0 ppm) was 4 (80-100) and the “Spore Germination Rating” value ([5]; 2.5 ppm) was 1 (10-40). For the same compound, the “Spore Germination Rating” value ([5]; 10 ppm) was 1 (10-40), the “Spore Germination Rating” value ([5]; 40 ppm) was 0 (0-10) and the “Spore Germination Rating” value ([6]; 1.0 ppm) was 4 (80-100). For the same compound, the “Spore Germination Rating” value ([6]; 2.5 ppm) was 4 (80-100), the “Spore Germination Rating” value ([6]; 10 ppm) was 4 (80-100) and the “Spore Germination Rating” value ([6]; 40 ppm) was 4 (80-100). For the same compound, the “Spore Germination Rating” value ([7]; 1.0 ppm) was 4 (80-100), the “Spore Germination Rating” value ([7]; 2.5 ppm) was 4 (80-100) and the “Spore Germination Rating” value ([7]; 10 ppm) was 4 (80-100). The “Spore Germination Rating” value ([7]; 40 ppm) was 4 (80-100), the “Spore Germination Rating” value ([8]; 1.0 ppm) was 2 (40-60) and the “Spore Germination Rating” value ([8]; 2.5 ppm) was 2 (40-60). The “Spore Germination Rating” value ([8]; 10 ppm) was 0 (0-10) and the “Spore Germination Rating” value ([8]; 40 ppm) was 0 (0-10).
For `O=C1C2CC=CCC2C(=O)N1SC(Cl)(Cl)Cl` (stereo not shown) [Captan, reference compound], the inhibition at 5 ppm [9] was 19%, the inhibition at 10 ppm [9] was 33% and the inhibition at 20 ppm [9] was 48%. For the same compound, the inhibition at 40 ppm [9] was 44%, the inhibition at 5 ppm [10] was 0% and the inhibition at 10 ppm [10] was 0%. For the same compound, the inhibition at 20 ppm [10] was 0%, the inhibition at 40 ppm [10] was 0% and the inhibition at 5 ppm [11, 22] was 18%. It also gave an inhibition at 10 ppm [11, 22] of 46%, an inhibition at 20 ppm [11, 22] of 62% and an inhibition at 40 ppm [11, 22] of 65%. It also gave an inhibition at 5 ppm [12] of 0%, an inhibition at 10 ppm [12] of 0% and an inhibition at 20 ppm [12] of 0%. For the same compound, the inhibition at 40 ppm [12] was 0%.
For `N#Cc1c(Cl)c(Cl)c(Cl)c(C#N)c1Cl` [Chlorothalonil, reference compound], the inhibition at 5 ppm [13] was 26%, the inhibition at 10 ppm [13] was 15% and the inhibition at 20 ppm [13] was 41%. For the same compound, the inhibition at 40 ppm [13] was 48%, the inhibition at 5 ppm [9] was 41% and the inhibition at 10 ppm [9] was 41%. It also gave an inhibition at 20 ppm [9] of 76%, an inhibition at 40 ppm [9] of 88% and an inhibition at 5 ppm [10] of 31%. It also gave an inhibition at 10 ppm [10] of 40%, an inhibition at 20 ppm [10] of 53% and an inhibition at 40 ppm [10] of 73%. The inhibition at 5 ppm [14] was 44%, the inhibition at 10 ppm [14] was 50% and the inhibition at 20 ppm [14] was 38%. For the same compound, the inhibition at 40 ppm [14] was 75%, the inhibition at 5 ppm [11, 22] was 50% and the inhibition at 10 ppm [11, 22] was 59%. The inhibition at 20 ppm [11, 22] was 73%, the inhibition at 40 ppm [11, 22] was 95% and the inhibition at 5 ppm [15] was 67%. For the same compound, the inhibition at 10 ppm [15] was 70%, the inhibition at 20 ppm [15] was 76% and the inhibition at 40 ppm [15] was 82%. The inhibition at 5 ppm [12] was 0%, the inhibition at 10 ppm [12] was 31% and the inhibition at 20 ppm [12] was 100%. It also gave an inhibition at 40 ppm [12] of 100%, an inhibition at 5 ppm [16] of 63% and an inhibition at 10 ppm [16] of 63%. For the same compound, the inhibition at 40 ppm [16] was 96% and the inhibition at 20 ppm [16] was 71%.
With `O=C(OCc1ccccc1)Oc1ccc(Oc2nsnc(Cl)c2=O)cc1` [Compound 38, 3-chloro-5-[4-(phenylmethoxycarbonyloxy)phenoxyl]-4H-1,2,6-thiadiazin-4-one] the “Spore Germination Rating” value ([1]; 1.0 ppm) was 4 (80-100), the “Spore Germination Rating” value ([1]; 2.5 ppm) was 4 (80-100) and the “Spore Germination Rating” value ([1]; 10 ppm) was 4 (80-100). For the same compound, the “Spore Germination Rating” value ([1]; 40 ppm) was 3 (60-80), the “Spore Germination Rating” value ([2]; 1.0 ppm) was 4 (80-100) and the “Spore Germination Rating” value ([2]; 2.5 ppm) was 4 (80-100). The “Spore Germination Rating” value ([2]; 10 ppm) was 3 (60-80), the “Spore Germination Rating” value ([2]; 40 ppm) was 3 (60-80) and the inhibition at 5 ppm [13] was 8%. It also gave an inhibition at 10 ppm [13] of 15%, an inhibition at 20 ppm [13] of 23% and an inhibition at 40 ppm [13] of 46%. For the same compound, the inhibition at 5 ppm [9] was 10%, the inhibition at 10 ppm [9] was 20% and the inhibition at 20 ppm [9] was 30%. It also gave an inhibition at 40 ppm [9] of 35%, a pest or weed control at 150 ppm [17] of 0% and an inhibition at 5 ppm [10] of 0%. It also gave an inhibition at 10 ppm [10] of 0%, an inhibition at 20 ppm [10] of 7% and an inhibition at 40 ppm [10] of 33%. For the same compound, the inhibition at 5 ppm [14] was 5%, the inhibition at 10 ppm [14] was 48% and the inhibition at 20 ppm [14] was 33%. For the same compound, the inhibition at 40 ppm [14] was 90%, the pest or weed control at 150 ppm [18] was 0% and the “Spore Germination Rating” value ([3]; 1.0 ppm) was 4 (80-100). The “Spore Germination Rating” value ([3]; 2.5 ppm) was 3 (60-80), the “Spore Germination Rating” value ([3]; 10 ppm) was 2 (40-60) and the “Spore Germination Rating” value ([3]; 40 ppm) was 2 (40-60). The inhibition at 5 ppm ([11]; read-out: Percent Fungus Growth Inhibition, HO, 5 ppm, 72 hours) was 56%, the inhibition at 10 ppm ([11]; read-out: Percent Fungus Growth Inhibition, HO, 10 ppm, 72 hours) was 39% and the inhibition at 20 ppm ([11]; read-out: Percent Fungus Growth Inhibition, HO, 20 ppm, 72 hours) was 89%. For the same compound, the inhibition at 40 ppm ([11]; read-out: Percent Fungus Growth Inhibition, HO, 40 ppm, 72 hours) was 100%, the inhibition at 5 ppm [15] was 0% and the inhibition at 10 ppm [15] was 0%. It also gave an inhibition at 20 ppm [15] of 0%, an inhibition at 40 ppm [15] of 8% and a pest or weed control at 150 ppm [19] of 0%. For the same compound, the pest or weed control at 150 ppm [20] was 0%, the inhibition at 5 ppm [12] was 0% and the inhibition at 10 ppm [12] was 0%. The inhibition at 20 ppm [12] was 0%, the inhibition at 40 ppm [12] was 0% and the “Spore Germination Rating” value ([5]; 1.0 ppm) was 4 (80-100). For the same compound, the “Spore Germination Rating” value ([5]; 2.5 ppm) was 4 (80-100), the “Spore Germination Rating” value ([5]; 10 ppm) was 3 (60-80) and the “Spore Germination Rating” value ([5]; 40 ppm) was 2 (40-60). For the same compound, the “Spore Germination Rating” value ([6]; 1.0 ppm) was 4 (80-100), the “Spore Germination Rating” value ([6]; 2.5 ppm) was 4 (80-100) and the “Spore Germination Rating” value ([6]; 10 ppm) was 4 (80-100). For the same compound, the “Spore Germination Rating” value ([6]; 40 ppm) was 3 (60-80), the “Spore Germination Rating” value ([7]; 1.0 ppm) was 4 (80-100) and the “Spore Germination Rating” value ([7]; 2.5 ppm) was 4 (80-100). The “Spore Germination Rating” value ([7]; 10 ppm) was 4 (80-100), the “Spore Germination Rating” value ([7]; 40 ppm) was 4 (80-100) and the “Spore Germination Rating” value ([8]; 1.0 ppm) was 4 (80-100). The “Spore Germination Rating” value ([8]; 2.5 ppm) was 4 (80-100), the “Spore Germination Rating” value ([8]; 10 ppm) was 4 (80-100) and the “Spore Germination Rating” value ([8]; 40 ppm) was 4 (80-100). The pest or weed control at 150 ppm [21] was 100%, the inhibition at 5 ppm [16] was 0% and the inhibition at 10 ppm [16] was 0%. It also gave an inhibition at 40 ppm [16] of 26% and an inhibition at 20 ppm [16] of 0%.
